One data set deals with monocytes. Kind of data set: Annexin staining / flow cytometry of monocytes (apoptosis). Format: cell-based, human. To be noted: for Percentage of annexin positive cells: 4 hours, monocytes. On the procedure: Annexin staining was used to determine cell viability and cells were counted using flow cytometry.
Peripheral blood […] were isolated from A+ buffy coats (Blood Bank, St. Olav's University Hospital) by density gradient centrifugation (Lymphoprep; Axis-Shield PoC, Oslo, Norway). The adherent cell fraction after 90 minute incubation, termed monocytes, were washed twice with HANKS and maintained in RPMI 1640 supplemented with 2 mM glutamine, […] gentamicin and 25% heat-inactivated HS over-night. Cells were cultured at 37° C. in a humidified atmosphere of 5% CO2 over-night. […] An R11 peptide and no peptide treatment were used as controls. After 4 hours, the cells were washed once in PBS, and re-suspended in buffer as recommended by the manufacturer of the Annexin V-Pacific Blue kit (Invitrogen). Cells were identified monocytes according to size (FSC) and granularity (SSC).
In general terms: A flow cytometer gives signals particle by particle.

The test system of data set [1] is Akt Ser473 phosphorylation. Kind of data set: Western blot of Akt Ser473 phosphorylation in peripheral blood monocytes. Format: cell-based, human. The conditions noted are these: 4 μM ATX-101, 4 h. The method, then:
Data is from one representative donor out of three; and (B-E) show multiplex analysis of cytokine levels produced by peripheral blood monocytes stimulated with 10 ng/ml LPS (B and D, same donor) and 40 μg/ml polyIC (C and E, same donor) after 4 h. (B and C) Stimulated-monocytes were treated with 4 μM ATX-101, 10 μM SB203580 (p38 MAPK inhibitor), and combination of ATX-101 and SB203580. (D and E) Stimulated-monocytes were treated with 4 μM ATX-101, 5 and 10 μM LY294002 (PI3K class I inhibitor), and combination of ATX-101 and LY294002. Measured cytokine levels were normalized to cytokine levels from monocytes stimulated with TLR ligand alone. A two fold or higher increase in cytokine level after TLR stimulation was defined as cytokine induction. # Value is too low to be visible in the column diagram; ? cytokine measurement was out of range. Data is from representative experiments out of two.
Mononucleated cells were seeded and stimulated as described above. JJN-3 cells were treated with ATX-101 (6 μM) for 4 h. HaCaT cells were treated with ATX-101 (12 μM), polylC (2 μg/ml), and LPS (100 ng/ml) for 4 h. […] The proteins were visualized with the Odyssey infrared imaging system (LI-COR) and quantified using Odyssey Image Studio V2. […]
A general note: Immunoblotting shows a protein as a band on a membrane.

For the next data set, the system named is normal cells. The conditions noted are these: 4 μM dose; cited from earlier work.

Ends that are not written are not given here.

Take Ac-MDRWLVKWKKKRKIRRRRRRRRRRR [ATX-101]: the “Percentage of annexin positive cells” value came out at 72% in the data set on monocytes (5μM peptide treatment) and 79% with monocytes (10 μM peptide treatment). Also, the “induction of apoptosis in monocytes” value in the data set on monocytes (at the concentration used for cytokine secretion (4 μM)) is given as “did not induce apoptosis”. For the same substance, the “LPS- and polyIC-induced and basal Akt phosphorylation” value in data set [1] is on record as “reduced”. The “toxicity on normal cells in BMCS assays” value in the data set on normal cells is listed as “low toxicity”.

The values are drawn from patent US11246907B2, “Immunosuppressive agents and their use in therapy” (Norwegian University of Science and Technology, priority 2013, dated 2022).
